Experimental data: ChEMBL document CHEMBL3399947, “Structure activity relationship of selective GABA uptake inhibitors” (Bioorg Med Chem, 2015)

What was measured:
Assay type in all cases: cell-based
[1] = molecular target: T1, GABA transporter 2 (Mus musculus, UniProt P31651); experiment: Inhibition of mouse mGAT2 expressed in HEK293 cells assessed as inhibition of [3H]GABA uptake after 3 mins incubation by TopCount microplate scintillation counting analysis; conditions: read-out: IC50
T1 sequence (P31651 whole entry): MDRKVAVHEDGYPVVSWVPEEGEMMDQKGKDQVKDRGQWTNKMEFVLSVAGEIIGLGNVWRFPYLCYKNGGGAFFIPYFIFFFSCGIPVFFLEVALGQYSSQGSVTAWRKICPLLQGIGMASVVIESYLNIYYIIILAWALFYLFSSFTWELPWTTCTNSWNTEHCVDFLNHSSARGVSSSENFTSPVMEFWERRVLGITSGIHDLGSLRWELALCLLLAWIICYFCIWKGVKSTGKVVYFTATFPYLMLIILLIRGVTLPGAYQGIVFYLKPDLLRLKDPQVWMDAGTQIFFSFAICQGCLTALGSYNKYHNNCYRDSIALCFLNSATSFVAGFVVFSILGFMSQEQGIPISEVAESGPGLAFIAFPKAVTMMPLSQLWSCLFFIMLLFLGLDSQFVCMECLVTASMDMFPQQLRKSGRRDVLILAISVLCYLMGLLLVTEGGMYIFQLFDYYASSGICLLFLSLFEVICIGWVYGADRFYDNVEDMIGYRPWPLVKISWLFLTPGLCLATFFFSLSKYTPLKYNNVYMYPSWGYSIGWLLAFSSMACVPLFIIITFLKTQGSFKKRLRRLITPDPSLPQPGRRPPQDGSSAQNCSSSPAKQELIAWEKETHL

[2] = molecular target: T2, GABA transporter 3 (Mus musculus, UniProt P31649); experiment: Inhibition of mouse mGAT3 expressed in HEK293 cells assessed as inhibition of [3H]GABA uptake after 3 mins incubation by TopCount microplate scintillation counting analysis
T2 sequence (P31649 whole entry): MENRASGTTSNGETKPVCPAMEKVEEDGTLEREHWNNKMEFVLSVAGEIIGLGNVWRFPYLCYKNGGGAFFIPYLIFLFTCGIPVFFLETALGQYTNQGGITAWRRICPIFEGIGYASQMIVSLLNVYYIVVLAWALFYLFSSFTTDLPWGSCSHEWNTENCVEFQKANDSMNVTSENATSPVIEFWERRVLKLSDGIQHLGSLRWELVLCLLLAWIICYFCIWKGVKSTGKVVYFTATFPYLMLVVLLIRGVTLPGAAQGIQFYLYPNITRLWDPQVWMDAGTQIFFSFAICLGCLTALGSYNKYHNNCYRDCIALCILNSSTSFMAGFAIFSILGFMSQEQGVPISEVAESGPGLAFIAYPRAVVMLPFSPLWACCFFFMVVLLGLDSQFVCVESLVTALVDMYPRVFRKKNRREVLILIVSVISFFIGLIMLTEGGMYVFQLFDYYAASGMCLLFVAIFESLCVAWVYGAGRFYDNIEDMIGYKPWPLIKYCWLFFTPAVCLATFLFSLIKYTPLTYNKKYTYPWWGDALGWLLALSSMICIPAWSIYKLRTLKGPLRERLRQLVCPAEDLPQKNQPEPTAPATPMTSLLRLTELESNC

[3] = molecular target: T3, GABA transporter 4 (Mus musculus, UniProt P31650); experiment: Inhibition of mouse mGAT4 expressed in HEK293 cells assessed as inhibition of [3H]GABA uptake after 3 mins incubation by TopCount microplate scintillation counting analysis; conditions: read-out: IC50
T3 sequence (P31650 whole entry): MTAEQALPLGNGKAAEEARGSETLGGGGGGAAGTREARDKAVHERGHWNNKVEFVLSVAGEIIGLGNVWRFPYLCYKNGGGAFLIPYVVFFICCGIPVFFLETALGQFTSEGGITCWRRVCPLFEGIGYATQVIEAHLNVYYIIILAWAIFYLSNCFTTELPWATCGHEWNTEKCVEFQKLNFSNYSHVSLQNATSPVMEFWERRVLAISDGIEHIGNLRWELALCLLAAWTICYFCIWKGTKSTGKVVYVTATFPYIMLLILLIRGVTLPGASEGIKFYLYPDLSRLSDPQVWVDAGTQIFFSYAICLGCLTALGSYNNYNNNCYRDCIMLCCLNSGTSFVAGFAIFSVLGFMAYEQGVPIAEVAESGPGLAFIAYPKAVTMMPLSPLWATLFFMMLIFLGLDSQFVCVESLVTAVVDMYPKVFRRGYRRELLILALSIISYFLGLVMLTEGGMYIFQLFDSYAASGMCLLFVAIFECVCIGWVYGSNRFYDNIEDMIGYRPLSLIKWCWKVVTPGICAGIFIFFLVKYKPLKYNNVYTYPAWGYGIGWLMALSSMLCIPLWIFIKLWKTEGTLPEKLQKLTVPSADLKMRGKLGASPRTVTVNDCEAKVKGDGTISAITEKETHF

[4] = molecular target: Sodium- and chloride-dependent GABA transporter 1 (Mus musculus, UniProt P31648); experiment: Inhibition of mouse mGAT1 expressed in HEK293 cells assessed as inhibition of [3H]GABA uptake after 3 mins incubation by TopCount microplate scintillation counting analysis

Row | SMILES | IC50 [1] [µM] | IC50 ([2]; read-out: IC50) [µM] | IC50 [3] [µM] | IC50 ([2]; read-out: pIC50 (converted)) [µM] | IC50 ([4]; read-out: IC50) [µM] | IC50 ([4]; read-out: pIC50 (converted)) [µM]
1 | COc1ccccc1C1(O)CCN(CCCn2c3ccccc3c3ccccc32)CC1 | 1.4 | 41 | – | – | – | –
2 | CCOC(=O)[C@H]1CCCC[C@H]1N(C)CCC=C(c1sccc1C)c1sccc1C | 201 | 654 | 1220 | 646 | 604 | –
3 | CN(CCC=C1c2ccccc2CCc2ccccc21)[C@@H]1CCCC[C@@H]1CO | 50 | 153 | 171 | – | 286 | –
4 | CN(CCOC(c1ccc(C(F)(F)F)cc1)c1ccc(C(F)(F)F)cc1)[C@H]1CCCC[C@H]1CO | 133 | 328 | 181 | – | 359 | –
5 | CN(CCOC(c1ccc(C(F)(F)F)cc1)c1ccc(C(F)(F)F)cc1)[C@@H]1CCCC[C@@H]1CO | 63.3 | 119 | 866 | – | 223 | –
6 | CCOC(=O)[C@@H]1CCCC[C@@H]1N(C)CCC=C(c1sccc1C)c1sccc1C | 217 | 602 | 835 | – | 801 | –
7 | CCOC(=O)[C@H]1CCCC[C@H]1N(C)CCON=C(c1ccccc1)c1ccccc1 | 114 | 1050 | 836 | – | 1240 | –
8 | CCOC(=O)[C@@H]1CCCC[C@@H]1N(C)CCC=C1c2ccccc2CCc2ccccc21 | 375 | 1340 | 1670 | – | 1370 | –
9 | CCOC(=O)[C@H]1CCCC[C@H]1N(C)CCC=C1c2ccccc2CCc2ccccc21 | 444 | 1400 | > 1000 | 1740 | 1190 | –
10 | CCOC(=O)[C@@H]1CCCC[C@@H]1N(C)CCOC(c1ccc(C(F)(F)F)cc1)c1ccc(C(F)(F)F)cc1 | 417 | 652 | 1470 | – | 508 | –
11 | CCOC(=O)[C@H]1CCCC[C@H]1N(C)CCOC(c1ccc(C(F)(F)F)cc1)c1ccc(C(F)(F)F)cc1 | 325 | 511 | 1210 | – | 425 | –
12 | CNCCC=C(c1sccc1C)c1sccc1C | 179 | 137 | 254 | – | 160 | –
13 | CNCCON=C(c1ccccc1)c1ccccc1 | 430 | 1050 | 829 | – | > 2000 | –
14 | CNCCOC(c1ccc(C(F)(F)F)cc1)c1ccc(C(F)(F)F)cc1 | 190 | 58 | 143 | – | 163 | –
15 | Cc1ccsc1C(=CCCNCCC(=O)O)c1sccc1C | 504 | 796 | 1730 | – | 171 | –
16 | O=C(O)CCNCCON=C(c1ccccc1)c1ccccc1 | > 1000 | 290 | 310 | – | 6.99 | –
17 | O=C(O)CCNCCC=C1c2ccccc2CCc2ccccc21 | 1380 | 3250 | 4060 | – | 281 | –
18 | Cc1ccsc1C(=CCCN(C)CCC(=O)O)c1sccc1C | 937 | 343 | 1280 | – | 966 | –
19 | CN(CCON=C(c1ccccc1)c1ccccc1)CCC(=O)O | 7520 | 674 | 768 | – | 9.7 | –
20 | CN(CCC=C1c2ccccc2CCc2ccccc21)CCC(=O)O | 735 | 1050 | 1700 | – | 77.7 | –
21 | CN(CCCP(=O)(O)O)CCON=C(c1ccccc1)c1ccccc1 | > 1000 | > 1000 | > 1000 | – | > 1000 | –

Row | SMILES | IC50 [1] [µM] | IC50 ([2]; read-out: IC50) [µM] | IC50 [3] [µM] | IC50 ([2]; read-out: pIC50 (converted)) [µM] | IC50 ([4]; read-out: IC50) [µM] | IC50 ([4]; read-out: pIC50 (converted)) [µM]
22 | CN(CCC=C1c2ccccc2CCc2ccccc21)CCCP(=O)(O)O | > 1000 | > 1000 | > 1000 | – | > 1000 | –
23 | CN(CCCS(=O)(=O)O)CCON=C(c1ccccc1)c1ccccc1 | > 1000 | > 1000 | > 1000 | – | 828 | –
24 | Cc1ccsc1C(=CCCn1cc(CNCCC(=O)O)nn1)c1sccc1C | > 2000 | > 2000 | > 2000 | – | > 2000 | –
25 | O=C(O)CCNCc1cn(CCOC(c2ccc(C(F)(F)F)cc2)c2ccc(C(F)(F)F)cc2)nn1 | > 1000 | > 1000 | > 1000 | – | > 1000 | –
26 | Cc1ccsc1C(=CCCN1CCNCC(C(=O)O)C1)c1sccc1C (centres undefined) | 370 | 844 | 1740 | – | 43.8 | –
27 | CCN1CCN(CCC=C(c2sccc2C)c2sccc2C)CC(C(=O)O)C1 (centres undefined) | 318 | 1700 | > 1000 | – | 483 | –
28 | CCC(C)N1CCN(CCC=C(c2sccc2C)c2sccc2C)CC(C(=O)O)C1 (centres undefined) | 160 | > 1000 | > 1000 | – | > 1000 | –
29 | CCCCN1CCN(CCC=C(c2sccc2C)c2sccc2C)CC(C(=O)O)C1 (centres undefined) | 80.6 | 650 | 681 | – | 185 | 501
30 | C=CCN1CCN(CCC=C(c2sccc2C)c2sccc2C)CC(C(=O)O)C1 (centres undefined) | 160 | 1100 | 563 | – | 549 | –
31 | Cc1ccsc1C(=CCCN1CCN(Cc2ccccc2)CC(C(=O)O)C1)c1sccc1C (centres undefined) | 309 | > 1000 | > 1000 | – | > 1000 | –
32 | Cc1ccsc1C(=CCCN1CCN(CCO)CC(C(=O)O)C1)c1sccc1C (centres undefined) | > 1000 | > 1000 | > 1000 | – | > 1000 | –
33 | Cc1ccsc1C(=CCCN1CCN(C(=N)N)CC(C(=O)O)C1)c1sccc1C (centres undefined) | > 1000 | > 1000 | > 1000 | – | > 1000 | –
34 | O=C(O)C1CNCCN(CCON=C(c2ccccc2)c2ccccc2)C1 (centres undefined) | > 1000 | > 1000 | > 1000 | – | 667 | 5250
35 | CCN1CCN(CCON=C(c2ccccc2)c2ccccc2)CC(C(=O)O)C1 (centres undefined) | > 1000 | > 1000 | > 1000 | – | > 1000 | –
36 | CCCCN1CCN(CCON=C(c2ccccc2)c2ccccc2)CC(C(=O)O)C1 (centres undefined) | > 1000 | > 1000 | > 1000 | – | > 1000 | –
37 | Cc1ccsc1C(=CCCN1CCN(CCON=C(c2ccccc2)c2ccccc2)CC(C(=O)O)C1)c1sccc1C (centres undefined) | > 1000 | > 1000 | > 1000 | – | > 1000 | –
38 | O=C(O)C1CN(CCO)CCN(CCON=C(c2ccccc2)c2ccccc2)C1 (centres undefined) | > 1000 | > 1000 | > 1000 | – | > 1000 | –
39 | COc1ccc(C(OCCN2CCC[C@H](C(=O)O)C2)(c2ccc(OC)cc2)c2ccc(OC)cc2)cc1 | 22 | – | – | – | – | –
40 | CN(CCON=C(c1ccccc1)c1ccccc1)[C@@H]1CCCC[C@H]1C(=O)O (racemic) | 1100 | > 2000 | > 2000 | – | – | –
41 | Cc1ccsc1C(=CCCN1CCC[C@@H](C(=O)O)C1)c1sccc1C [TIAGABINE] | – | > 300 | – | – | – | –
